Holding throughout (assay type): biochemical
The target of one data set is T1, CYP1A1 (Homo sapiens, UniProt P04798).
T1 sequence (P04798 1-512): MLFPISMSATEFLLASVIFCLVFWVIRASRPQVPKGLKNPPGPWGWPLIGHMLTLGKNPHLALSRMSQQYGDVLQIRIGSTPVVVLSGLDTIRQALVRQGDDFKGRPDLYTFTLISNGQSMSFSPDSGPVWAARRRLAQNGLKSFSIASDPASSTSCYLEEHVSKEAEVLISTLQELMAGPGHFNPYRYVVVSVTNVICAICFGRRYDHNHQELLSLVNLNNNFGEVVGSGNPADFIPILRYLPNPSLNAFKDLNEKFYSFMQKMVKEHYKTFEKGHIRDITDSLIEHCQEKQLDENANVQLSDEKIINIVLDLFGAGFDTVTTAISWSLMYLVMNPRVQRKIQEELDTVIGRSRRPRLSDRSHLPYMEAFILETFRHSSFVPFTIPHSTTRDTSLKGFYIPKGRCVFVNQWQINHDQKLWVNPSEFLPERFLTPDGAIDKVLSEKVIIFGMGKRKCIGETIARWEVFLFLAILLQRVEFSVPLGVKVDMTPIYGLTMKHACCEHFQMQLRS

For another data set, the target named is T2, PTGS1 (Ovis aries, UniProt P05979).
T2 sequence (P05979 25-600): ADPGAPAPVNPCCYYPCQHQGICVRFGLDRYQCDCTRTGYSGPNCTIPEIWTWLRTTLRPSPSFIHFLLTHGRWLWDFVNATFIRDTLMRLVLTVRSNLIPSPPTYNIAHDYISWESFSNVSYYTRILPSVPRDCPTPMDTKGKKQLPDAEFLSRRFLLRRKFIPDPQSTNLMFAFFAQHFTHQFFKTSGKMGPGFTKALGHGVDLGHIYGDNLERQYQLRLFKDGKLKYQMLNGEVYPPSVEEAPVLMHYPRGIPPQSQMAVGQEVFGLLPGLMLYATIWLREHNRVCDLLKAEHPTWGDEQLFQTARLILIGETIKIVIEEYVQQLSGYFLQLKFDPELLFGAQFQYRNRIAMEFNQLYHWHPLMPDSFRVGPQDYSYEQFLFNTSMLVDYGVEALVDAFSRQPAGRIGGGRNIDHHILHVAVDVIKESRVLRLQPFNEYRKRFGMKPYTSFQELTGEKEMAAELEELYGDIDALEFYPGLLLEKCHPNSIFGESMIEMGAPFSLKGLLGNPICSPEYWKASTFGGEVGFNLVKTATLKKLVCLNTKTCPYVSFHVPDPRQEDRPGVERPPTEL
Briefly: colorimetric enzyme activity assay.

The target in the next data set is CYP3A4 (Homo sapiens, UniProt P08684). As to the kind of experiment: fluorescent probe substrate. The note with it: liver microsomes.
Chain of CYP3A4 (P08684 2-503): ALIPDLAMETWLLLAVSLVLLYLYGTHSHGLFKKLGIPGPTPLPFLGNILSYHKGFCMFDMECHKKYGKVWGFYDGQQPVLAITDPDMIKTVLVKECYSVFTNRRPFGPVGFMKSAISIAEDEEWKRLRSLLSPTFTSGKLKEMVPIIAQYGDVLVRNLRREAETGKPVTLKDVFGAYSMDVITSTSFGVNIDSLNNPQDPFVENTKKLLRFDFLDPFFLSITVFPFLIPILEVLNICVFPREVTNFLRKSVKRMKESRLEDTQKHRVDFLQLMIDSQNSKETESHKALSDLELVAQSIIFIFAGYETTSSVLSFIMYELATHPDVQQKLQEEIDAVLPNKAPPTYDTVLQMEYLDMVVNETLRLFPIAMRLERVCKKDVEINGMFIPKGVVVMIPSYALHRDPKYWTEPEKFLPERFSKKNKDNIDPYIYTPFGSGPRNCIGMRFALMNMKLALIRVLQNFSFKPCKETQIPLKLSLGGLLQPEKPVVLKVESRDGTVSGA

Experimental findings from PMC7480398 (Phytomedicine, 2020) are described below.

As to `O=c1c(O[C@@H]2O[C@H](CO)[C@H](O)[C@H](O)[C@H]2O)c(-c2ccc(O)c(O)c2)oc2cc(O)cc(O)c12` [hyperoside], on CYP1A1, the IC50 (usually the concentration needed to halve the response being measured) was 105 ± 18.9 µM. On to `O=C(O)[C@H]1O[C@@H](Oc2cc3oc(-c4ccccc4)cc(=O)c3c(O)c2O)[C@H](O)[C@@H](O)[C@@H]1O` [baicalin], for which, on PTGS1, the “colorimetric enzyme activity assay (590 nm)” value was “Baicalin inhibited pure PTGS1 and AA induced platelet aggregation at the concentration as shown”. As for `CC(=O)O[C@@H](C[C@@H](C)C1=C2C[C@H](O)[C@H]3[C@@]4(C)CCC(=O)C(C)(C)[C@@H]4CC[C@]3(C)[C@@]2(C)CC1)[C@H]1OC1(C)C` [alisol B 23-acetate], the 50% inhibitory concentration (IC50) on CYP3A4 worked out at 0.45 ± 0.03 µM.
